The source made the active and inactive calls. No cut-off for these calls is given here.
Tests used:
[1] = target: T1, Bcr/Abl fusion protein (Homo sapiens) (UniProt P00519+P11274); test: Inhibition of BCR-ABL signaling pathway in human K562 cells assessed as suppression of STAT5 phosphorylation at 100 uM after 8 hrs in presence of imatinib by Western blot analysis; format: cell-based
[2] = target: T1, Bcr/Abl fusion protein (Homo sapiens); test: Inhibition of BCR-ABL signaling pathway in human K562 cells assessed as suppression of CrkL phosphorylation at 100 uM after 8 hrs in presence of imatinib by Western blot analysis; format: cell-based
[3] = target: T1, Bcr/Abl fusion protein (Homo sapiens); test: Inhibition of BCR-ABL phosphorylation in human K562 cells at 100 uM after 8 hrs in presence of imatinib by Western blot analysis; format: cell-based
[4] = Effect on BCR-ABL protein levels in human K562 cells assessed as BCR-ABL to beta-tubulin ratio at 100 uM after 8 hrs in presence of imatinib by Western blot analysis relative to control; format: ADME, cell-based; details: k562, 8 h
K562 = test: Cytotoxicity against human K562 cells assessed as cell growth inhibition at 30 to 100 uM after 24 hrs by cell counting kit-8 assay; format: functional, cell-based
[5] = target: T2, Baculoviral IAP repeat-containing protein 2/Tyrosine-protein kinase ABL1/Breakpoint cluster region protein (Homo sapiens) (UniProt P00519+P11274+Q13490); test: Induction of cIAP1-mediated BCR-ABL protein degradation in human K562 cells assessed as BCR-ABL to beta-tubulin ratio at 30 uM after 24 hrs by Western blot analysis relative to control; format: cell-based
T2 sequence (P00519 whole entry, looked up): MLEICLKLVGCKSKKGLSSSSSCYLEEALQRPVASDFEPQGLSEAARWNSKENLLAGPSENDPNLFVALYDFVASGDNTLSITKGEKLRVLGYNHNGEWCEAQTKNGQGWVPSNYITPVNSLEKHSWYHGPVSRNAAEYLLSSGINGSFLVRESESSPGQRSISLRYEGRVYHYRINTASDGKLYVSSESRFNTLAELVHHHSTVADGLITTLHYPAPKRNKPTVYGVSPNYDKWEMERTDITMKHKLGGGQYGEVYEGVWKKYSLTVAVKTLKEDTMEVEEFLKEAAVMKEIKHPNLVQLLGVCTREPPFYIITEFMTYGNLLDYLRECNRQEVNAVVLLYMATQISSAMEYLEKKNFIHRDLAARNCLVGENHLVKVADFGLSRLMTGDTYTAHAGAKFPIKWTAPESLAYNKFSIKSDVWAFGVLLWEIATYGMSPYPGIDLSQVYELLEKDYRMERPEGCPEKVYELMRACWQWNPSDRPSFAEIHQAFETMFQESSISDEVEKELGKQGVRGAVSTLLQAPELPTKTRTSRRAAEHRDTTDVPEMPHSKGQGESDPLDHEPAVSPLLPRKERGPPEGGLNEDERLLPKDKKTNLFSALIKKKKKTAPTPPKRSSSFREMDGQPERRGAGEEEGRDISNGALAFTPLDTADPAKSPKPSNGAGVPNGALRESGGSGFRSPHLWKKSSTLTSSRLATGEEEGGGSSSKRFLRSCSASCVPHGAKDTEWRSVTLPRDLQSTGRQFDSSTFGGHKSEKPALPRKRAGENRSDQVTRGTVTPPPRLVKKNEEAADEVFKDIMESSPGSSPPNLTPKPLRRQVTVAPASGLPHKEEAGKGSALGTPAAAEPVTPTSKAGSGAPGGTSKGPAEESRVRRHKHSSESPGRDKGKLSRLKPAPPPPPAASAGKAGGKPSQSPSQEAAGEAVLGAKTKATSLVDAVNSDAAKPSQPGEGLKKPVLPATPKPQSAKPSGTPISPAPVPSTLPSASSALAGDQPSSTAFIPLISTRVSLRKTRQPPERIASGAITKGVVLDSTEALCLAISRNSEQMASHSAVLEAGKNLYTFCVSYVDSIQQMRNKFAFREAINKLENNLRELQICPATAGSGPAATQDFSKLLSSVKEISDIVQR
T2 sequence (P11274 whole entry, looked up): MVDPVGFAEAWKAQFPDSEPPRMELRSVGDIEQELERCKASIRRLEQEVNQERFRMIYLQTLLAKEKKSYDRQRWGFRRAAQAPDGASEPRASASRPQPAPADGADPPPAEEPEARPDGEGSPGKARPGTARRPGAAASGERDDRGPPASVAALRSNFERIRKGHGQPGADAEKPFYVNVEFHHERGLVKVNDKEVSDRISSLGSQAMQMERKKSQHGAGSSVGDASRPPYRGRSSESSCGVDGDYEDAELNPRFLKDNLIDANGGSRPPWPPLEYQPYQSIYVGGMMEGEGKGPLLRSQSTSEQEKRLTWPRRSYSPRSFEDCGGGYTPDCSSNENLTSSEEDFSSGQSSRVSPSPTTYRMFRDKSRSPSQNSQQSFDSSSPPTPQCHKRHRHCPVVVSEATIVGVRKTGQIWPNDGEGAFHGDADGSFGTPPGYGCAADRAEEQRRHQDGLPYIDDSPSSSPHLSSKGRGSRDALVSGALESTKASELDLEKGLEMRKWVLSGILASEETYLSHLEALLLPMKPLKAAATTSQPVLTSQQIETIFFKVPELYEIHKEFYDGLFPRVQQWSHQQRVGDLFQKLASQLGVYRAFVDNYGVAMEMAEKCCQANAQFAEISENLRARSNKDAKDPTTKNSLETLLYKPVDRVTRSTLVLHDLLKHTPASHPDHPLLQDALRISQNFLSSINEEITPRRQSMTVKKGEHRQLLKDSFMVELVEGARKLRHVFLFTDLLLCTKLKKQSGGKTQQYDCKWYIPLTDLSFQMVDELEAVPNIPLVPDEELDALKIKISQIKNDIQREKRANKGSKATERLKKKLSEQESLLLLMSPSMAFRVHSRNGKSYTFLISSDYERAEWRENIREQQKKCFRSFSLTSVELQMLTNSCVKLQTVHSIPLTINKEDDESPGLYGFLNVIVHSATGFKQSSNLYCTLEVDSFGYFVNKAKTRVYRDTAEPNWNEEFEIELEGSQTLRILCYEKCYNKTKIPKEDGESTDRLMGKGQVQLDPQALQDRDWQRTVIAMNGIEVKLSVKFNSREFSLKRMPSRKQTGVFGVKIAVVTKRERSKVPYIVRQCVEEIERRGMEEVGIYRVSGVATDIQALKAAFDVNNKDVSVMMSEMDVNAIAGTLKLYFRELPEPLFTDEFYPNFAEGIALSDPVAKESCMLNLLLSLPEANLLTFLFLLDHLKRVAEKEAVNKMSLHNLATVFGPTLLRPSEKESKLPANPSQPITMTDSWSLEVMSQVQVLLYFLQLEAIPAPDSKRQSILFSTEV
T2 sequence (Q13490 whole entry, looked up): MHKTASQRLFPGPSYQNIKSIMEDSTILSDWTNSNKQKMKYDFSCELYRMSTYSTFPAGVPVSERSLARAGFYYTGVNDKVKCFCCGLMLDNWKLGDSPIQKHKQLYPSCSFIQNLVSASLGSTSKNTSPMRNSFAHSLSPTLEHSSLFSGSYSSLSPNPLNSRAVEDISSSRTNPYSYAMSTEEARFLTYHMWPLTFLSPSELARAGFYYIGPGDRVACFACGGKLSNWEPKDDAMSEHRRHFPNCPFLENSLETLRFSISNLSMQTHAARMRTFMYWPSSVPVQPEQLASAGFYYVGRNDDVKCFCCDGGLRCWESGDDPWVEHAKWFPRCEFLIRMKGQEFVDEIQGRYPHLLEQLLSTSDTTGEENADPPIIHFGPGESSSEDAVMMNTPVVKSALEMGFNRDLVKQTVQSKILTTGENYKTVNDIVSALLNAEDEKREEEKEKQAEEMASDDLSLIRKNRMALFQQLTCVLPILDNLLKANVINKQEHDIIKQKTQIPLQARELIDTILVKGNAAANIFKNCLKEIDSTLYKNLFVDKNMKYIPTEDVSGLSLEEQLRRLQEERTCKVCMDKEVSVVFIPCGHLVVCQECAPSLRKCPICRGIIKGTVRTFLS

[6] = target: T2, Baculoviral IAP repeat-containing protein 2/Tyrosine-protein kinase ABL1/Breakpoint cluster region protein (Homo sapiens); test: Induction of cIAP1-mediated BCR-ABL protein degradation in human K562 cells assessed as BCR-ABL to beta-tubulin ratio at 100 uM after 24 hrs by Western blot analysis relative to control; format: cell-based
[7] = target: T2, Baculoviral IAP repeat-containing protein 2/Tyrosine-protein kinase ABL1/Breakpoint cluster region protein (Homo sapiens); test: Induction of cIAP1-mediated BCR-ABL protein degradation in human K562 cells assessed as BCR-ABL to beta-tubulin ratio at 30 uM after 8 hrs by Western blot analysis relative to control; format: cell-based
[8] = target: T2, Baculoviral IAP repeat-containing protein 2/Tyrosine-protein kinase ABL1/Breakpoint cluster region protein (Homo sapiens); test: Induction of cIAP1-mediated BCR-ABL protein degradation in human K562 cells assessed as BCR-ABL to beta-tubulin ratio at 100 uM after 8 hrs by Western blot analysis relative to control; format: cell-based
[9] = Cytotoxicity against human K562 cells assessed as cell growth at 30 to 100 uM after 24 hrs by cell counting kit-8 assay relative to control; format: functional
[10] = target: T1, Bcr/Abl fusion protein (Homo sapiens); test: Inhibition of BCR-ABL phosphorylation in human K562 cells at 100 uM after 8 hrs by Western blot analysis; format: cell-based
[11] = Effect on BCR-ABL protein levels in human K562 cells assessed as BCR-ABL to beta-tubulin ratio at 100 uM after 8 hrs by Western blot analysis relative to control; format: ADME, cell-based; details: k562, 8 h
[12] = target: T1, Bcr/Abl fusion protein (Homo sapiens); test: Inhibition of BCR-ABL signaling pathway in human K562 cells assessed as suppression of CrkL phosphorylation at 100 uM after 8 hrs by Western blot analysis; format: cell-based
[13] = target: T2, Baculoviral IAP repeat-containing protein 2/Tyrosine-protein kinase ABL1/Breakpoint cluster region protein (Homo sapiens); test: Induction of cIAP1-mediated BCR-ABL protein degradation in human K562 cells after 8 hrs by Western blot analysis; format: cell-based
[14] = target: T1, Bcr/Abl fusion protein (Homo sapiens); test: Inhibition of BCR-ABL signaling pathway in human K562 cells assessed as suppression of STAT5 phosphorylation at 100 uM after 8 hrs by Western blot analysis; format: cell-based

T1 sequence (P00519 whole entry, looked up, the tested form may be a part): as the sequence (P00519 whole entry, looked up) above
T1 sequence (P11274 whole entry, looked up, the tested form may be a part): as the sequence (P11274 whole entry, looked up) above

Row | SMILES | inhibition [1] | inhibition [2] | inhibition [3] | Activity [4] [%] | growth inhibition (GI) (K562) | Activity [5] [%] | Activity [6] [%] | Activity [7] [%] | Activity [8] [%] | Activity [9] [%] | inhibition [10] | Activity [11] [%] | inhibition [12] | Activity [13] | inhibition [14]
1 | COC(=O)[C@H](CC(C)C)NC(=O)[C@@H](O)[C@H](N)Cc1ccccc1 [BESTATIN METHYL ESTER] | Active | Active | Active | 99 | – | – | – | – | – | – | – | – | – | – | –
2 | Cc1ccc(NC(=O)c2ccc(CNC(=O)CCCCCCCCCCNC(=O)[C@H](CC(C)C)NC(=O)[C@@H](O)[C@H](N)Cc3ccccc3)cc2)cc1Nc1nccc(-c2cccnc2)n1 | – | – | – | – | Active | 14 | 8 | 77 | 94 | – | – | – | – | – | –
3 | Cc1ccc(NC(=O)c2ccc(CNC(=O)CCCCNC(=O)[C@H](CC(C)C)NC(=O)[C@@H](O)[C@H](N)Cc3ccccc3)cc2)cc1Nc1nccc(-c2cccnc2)n1.Cl | – | – | – | – | – | 105 | 81 | 121 | 113 | 100 | – | – | – | – | –
4 | Cc1ccc(NC(=O)c2ccc(CNC(=O)CCCCCCNC(=O)[C@H](CC(C)C)NC(=O)[C@@H](O)[C@H](N)Cc3ccccc3)cc2)cc1Nc1nccc(-c2cccnc2)n1.Cl | – | – | – | – | Active | 23 | 3 | 59 | 17 | – | Active | 27 | Active | Dose-dependent effect | Active

From ChEMBL document CHEMBL3860080, “Development of BCR-ABL degradation inducers via the conjugation of an imatinib derivative and a cIAP1 ligand” (Bioorg Med Chem Lett, 2016)
